Test results taken from patent US12129261B2, “Crystalline forms of a MCL-1 inhibitor, a process for their preparation and pharmaceutical compositions containing them” (LES LABORATOIRES SERVIER, priority 2018, dated 2024).

Tests used:
Type in all cases: physicochemical
[1] = Water content by coulometric titration
Experimental: The water content of crystalline Form M of Compound A obtained according to any one of the processes of Examples 1 to 6 was determined by coulometric titration using a Metrohm Coulometer composed of a 774 oven sample processor, a 774 SC controller, 831 KF coulometer and a 846 Dosing interface with Tiamo 1.2 software About 10 mg of accurately weighed micronized drug substance were introduced in vials heated for 10 minutes at 140° C. The water content of the powder was also determined by the coulometric method.

[2] = Stability studies of crystalline Form A (storage, post-storage HPLC); conditions: for (i) Polymorphic stability / (ii) chemical stability, drug substance content determined by LC: polyethylene bag in sealed quadruple laminated foil bag
Source text: For all storage conditions and storage periods, 1.2 g of crystalline Form A of Compound A obtained according to the process of Example 15 were introduced in a specific packaging for post-storage HPLC analysis.

Solubility in water = conditions: pH 7.5, water
[3] = Hygroscopicity by dynamic vapor sorption (DVS)
Experimental: The hygroscopicity of crystalline Form M of Compound A obtained according to any one of the processes of Examples 1 to 6 was assessed using the dynamic vapor sorption (DVS) technique. 5 to 10 mg of the drug substance test sample were accurately weighed into a DVS sample pan working at 25° C. under controlled humidity. The mass of the sample was recorded at 50% RH (relative humidity) until reaching a stable value. Thereafter the mass variation was recorded between 50% RH and 90% RH at a rate of 10% per hour. Mass variations were also recorded between 90% RH and 0% RH and from 0% RH back to 50% RH. The relative humidity was maintained constant when it reached either 0 or 90% RH until the mass variation was less than 0.002% per minute within a limit of lime of 15 hours. An increase in sample mass of approximately 0.4% was recorded by DVS analysis when a sample was exposed to relative humidities from 50% to 90% at 25° C.

[4] = Stability studies of crystalline Form M (storage, XRPD and post-storage HPLC); conditions: for stability towards temperature and humidity: 6-month storage period under various conditions
Experimental: For all storage conditions and storage periods, 20 mg of crystalline Form M of Compound A obtained according to any one of the processes of Examples 1 to 6 were introduced in a 30-mL vial for post-storage HPLC analysis (packaging: PVO=Opened glass container; VRAC PA=Double polyethylene bag).

[5] = 25° C./60% RH, 24 months of storage
[6] = 30° C./75% RH, 1 month of storage
[7] = 40° C./75% RH, 6 months of storage
[8] = 50° C./75% RH, 1 month of storage
[9] = 25° C. 60% RH, VRAC PA, 12 months
[10] = 30° C. 65% RH, VRAC PA, 12 months
[11] = 40° C. 75% RH, VRAC PA, 3 months
[12] = 40° C. 75% RH, VRAC PA, 6 months

## COc1ccccc1-c1nccc(COc2ccccc2CC(Oc2ncnc3sc(-c4ccc(F)cc4)c(-c4ccc(OCCN5CCN(C)CC5)c(Cl)c4C)c23)C(=O)O)n1 (centres unmarked) [Form MH, 2-{[5-{3-Chloro-2-methyl-4-[2-(4-methylpiperazin-1-yl)ethoxy]phenyl}-6-(4-fluorophenyl)thieno[2,3-d]pyrimidin-4-yl]oxy}-3-(2-{[2-(2-methoxyphenyl)pyrimidin-4-yl]methoxy}phenyl)propanoic acid]
[1]; coulometric method, powder after maturation in water
  water content: 29.3%

## COc1ccccc1-c1nccc(COc2ccccc2CC(Oc2ncnc3sc(-c4ccc(F)cc4)c(-c4ccc(OCCN5CCN(C)CC5)c(Cl)c4C)c23)C(=O)O)n1 (centres unmarked) [crystalline Form A of Compound A, 2-{[5-{3-Chloro-2-methyl-4-[2-(4-methylpiperazin-1-yl)ethoxy]phenyl}-6-(4-fluorophenyl)thieno[2,3-d]pyrimidin-4-yl]oxy}-3-(2-{[2-(2-methoxyphenyl)pyrimidin-4-yl]methoxy}phenyl)propanoic acid]
[2]; 24-month storage period under 25° C./60% RH
  stability on storage: remains stable
[2]; [5]
  (i) Polymorphic stability: (i) Form A
  (ii) chemical stability, drug substance content determined by LC: (ii) 98.8% after % m/m
[2]; [6]
  (i) Polymorphic stability: (i) Form A
  (ii) chemical stability, drug substance content determined by LC: (ii) 99.3% after % m/m
[2]; [7]
  (i) Polymorphic stability: (i) Form A
  (ii) chemical stability, drug substance content determined by LC: (ii) 99.5% after % m/m
[2]; [8]
  (i) Polymorphic stability: (i) Form A
  (ii) chemical stability, drug substance content determined by LC: (ii) 99.3% after % m/m
[2]; several months storage period under more severe conditions
  stability towards temperature and humidity: still remains stable

## COc1ccccc1-c1nccc(COc2ccccc2CC(Oc2ncnc3sc(-c4ccc(F)cc4)c(-c4ccc(OCCN5CCN(C)CC5)c(Cl)c4C)c23)C(=O)O)n1 [Compound A, (2R)-2-{[(5Sa)-5-{3-chloro-2-methyl-4-[2-(4-methylpiperazin-1-yl)ethoxy]phenyl}-6-(4-fluorophenyl)thieno[2,3-d]pyrimidin-4-yl]oxy}-3-(2-{[2-(2-methoxyphenyl)pyrimidin-4-yl]methoxy}phenyl)propanoic acid]
Solubility in water
  solubility: < 1 µg/mL

## COc1ccccc1-c1nccc(COc2ccccc2CC(Oc2ncnc3sc(-c4ccc(F)cc4)c(-c4ccc(OCCN5CCN(C)CC5)c(Cl)c4C)c23)C(=O)O)n1 (centres unmarked) [crystalline Form M of Compound A, 2-{[5-{3-chloro-2-methyl-4-[2-(4-methylpiperazin-1-yl)ethoxy]phenyl}-6-(4-fluorophenyl)thieno[2,3-d]pyrimidin-4-yl]oxy}-3-(2-{[2-(2-methoxyphenyl)pyrimidin-4-yl]methoxy}phenyl)propanoic acid]
[3]
  hygroscopicity according to the European Pharmacopoeia: slightly hygroscopic
[3]; DVS cycle 50-90-0-50% RH
  change to the crystalline form in X-ray powder diffractogram after water sorption/desorption/sorption cycle: no change
[3]; between 0% to 50% RH, 25° C.
  increase in sample mass (DVS): approximately 0.1%
[3]; between 90% to 0% RH, 25° C.
  decrease in sample mass (DVS): approximately 0.5%
[3]; relative humidities from 50% to 90% at 25° C.
  increase in sample mass (DVS): approximately 0.4%
[1]; vials heated for 10 minutes at 140° C.
  water content: 0.1 % in weight
[4]
  stability towards temperature and humidity: very stable
[4]; listed as Crystalline Form M of Compound A
  stability towards temperature and humidity: remains stable
[4]; 12-month storage period under 25° C./60% RH or 30° C./65% RH
  stability on storage: remains stable
[4]; 25° C. 60% RH, VRAC PA, 3 months
  (ii) chemical stability, drug substance content determined by LC: (ii) 100.0% m/m
[4]; 25° C. 60% RH, VRAC PA, 6 months
  (ii) chemical stability, drug substance content determined by LC: (ii) 99.7% m/m
[4]; [9]
  (i) Polymorphic stability: (i) Form M
  (ii) chemical stability, drug substance content determined by LC: (ii) 98.9% m/m
[4]; 25° C. 90% RH, PVO, 3 months
  (i) Polymorphic stability: (i) Form M
  (ii) chemical stability, drug substance content determined by LC: (ii) 99.7% m/m
[4]; 25° C. 90% RH, PVO, 6 weeks
  (i) Polymorphic stability: (i) Form M
  (ii) chemical stability, drug substance content determined by LC: (ii) 100.0% m/m
[4]; 30° C. 65% RH, VRAC PA, 3 months
  (ii) chemical stability, drug substance content determined by LC: (ii) 99.6% m/m
[4]; 30° C. 65% RH, VRAC PA, 6 months
  (ii) chemical stability, drug substance content determined by LC: (ii) 100.0% m/m
[4]; [10]
  (i) Polymorphic stability: (i) Form M
  (ii) chemical stability, drug substance content determined by LC: (ii) 98.8% m/m
[4]; [11]
  (i) Polymorphic stability: (i) Form M
  (ii) chemical stability, drug substance content determined by LC: (ii) 99.9% m/m
[4]; [12]
  (i) Polymorphic stability: (i) Form M
  (ii) chemical stability, drug substance content determined by LC: (ii) 100.0% m/m
[4]; 50° C. 75% RH, PVO, 3 months
  (i) Polymorphic stability: (i) Form M
  (ii) chemical stability, drug substance content determined by LC: (ii) 100.1% m/m
[4]; 50° C. 75% RH, PVO, 6 weeks
  (i) Polymorphic stability: (i) Form M
  (ii) chemical stability, drug substance content determined by LC: (ii) 100.2% m/m
